Source: patent publication US20150320709A1, “METHODS AND COMPOSITIONS FOR FACILITATING WEIGHT LOSS BY ADMINISTRATION OF THYROID HORMONES” (priority 2011, published 2015)

Tests used:
[1] = Low thyroid symptoms / clinical status of weight loss program patients on thyroid hormone treatment; assay type: in vivo, human; settings: Patient Example 2; 75 mcg daily, within a few weeks of switch from desiccated thyroid
Method: (§1) The first patient example is a person, 5′2″, weight 268 lbs, body mass index (BMI) 49 (nl 19-24; overweight 25-29; obesity≧30). Baseline blood pressure was 110/74, blood sugar (BS) was 153 mg/dL 10 days after their first visit. Their medical problems at baseline included obesity, type 2 diabetes mellitus (DM2), high blood pressure (HTN), fatigue, depression, and asthma. Their medications included glipizide 10 mg daily, amitriptyline 50 mg daily, metoprolol 50 mg daily, furosemide 40 mg daily, potassium chloride, lisinopril 10 mg daily, Advair Discus 500/50 twice daily (bid), and montelukast 10 mg daily. They were started on our comprehensive program. Five months after starting their weight loss treatment, they developed symptoms of hypothyroidism with constipation and fatigue. They had lost 28 lbs by this time and was having difficulty losing more weight even though they were eating less than they were before their weight loss treatment began. At the start of treatment, their FT4 was 0.9 ng/dL (nl 0.7-1.48). At the time of their low thyroid symptoms, their FT3 was 2.9 pg/mL (nl 1.71-3.71) and their FT4 was 0.91 ng/dL (nl 0.7-1.48). They were then treated with thyroid hormone (desiccated thyroid with a ratio of T4:T3 of about 4:1) at 60 mg daily for 6 days to acclimate, then increased to 120 mg daily. […] After two years on their weight loss treatment, their weight was 231 lbs. […] We tested for rT3 at this point. Their labs on the 150 mg dose of desiccated thyroid were: rT3 394 pg/mL (nl 90-350), FT3 3.94 pg/mL (nl 1.71-3.71), and FT4 1.24 ng/dL (nl 0.7-1.48). The task of bringing down their rT3 was then addressed. Over a period of a few months, their desiccated thyroid hormone was discontinued and instead the patient was given gradually increasing doses of T3 only, starting at 20 mcg daily and gradually increasing the T3 to 60 mcg bid. Five months after starting on T3 with increasing doses, their weight had dropped to 209 lbs. Their BP was 118/66 mmHg with pulse of 74 on lisinopril 10 mg daily, metoprolol 50 mg bid, and furosemide 40 mg daily. Instead of glipizide, they were taking metformin 500 mg bid. […] Their most recent labs on 60 mcg bid of T3 were FT3 3.8 pg/mL (nl 1.71-3.71), FT4 0.64 ng/dL (nl 0.7-1.48) and rT3 137 pg/mL (nl 90-350). Four months prior to this visit their BS was 125 mg/dl.
The second patient example is a person, 5′2″, weight 150 lbs, BMI 28 (nl 18.5-24.9; overweight 25-29.9; obesity≧30), with HTN. Their blood pressure was slightly elevated at 148/85 (on lisinopril 5 mg daily). Their medical problems at baseline included history of Hashimoto's thyroiditis, borderline high TSH, elevated lipids, and HTN. Their medications were lisinopril 5 mg daily, estradiol 2 mg daily, and rofecoxib 25 mg daily for osteoarthritis of their large joints. […]

[2] = Circulating thyroid hormone labs (FT3, FT4, rT3, TSH) in weight loss program patients on thyroid hormone treatment; assay type: in vivo, human
Description: FIG. 1 depicts hormonal responses to a hypocaloric state with subsequent treatment. Note: Time frames and shapes of response curves are approximated. Levels of all four hormones are normal before the diet (Time A). At time between time points B and D, TSH is dropping slightly to signal the thyroid gland to make less thyroid hormone. This drop is the mechanism to decrease metabolism in the hypocaloric state. At point C, free T3 begins to drop as rT3 increases. Also at time point C, different observations have been reported for changes in FT4: in our experience, FT4 also drops as indicated on the graph. In the literature, some report no change, whereas others report an increase in FT4. By the time of the blood sampling (time E), in our experience, patients whose FT3 and FT4 have dropped to the low end of normal (with possible above normal rT3 levels) are those experiencing symptoms of low thyroid. They may have any of the following symptoms: feeling cold, cold hands and feet, elevated diastolic blood pressure secondary to vasoconstriction, fatigue, depression, constipation, hair loss, dry skin, insomnia, as well as others. They have often hit a plateau of weight loss even though they have continued to maintain their hypocaloric diet and exercise program. At point F, we begin treatment with thyroid hormone (for example, T4 with T3, T3 alone, T3 with T2 and T4, or T2 alone. Between points F and G, FT3 and rT3 (and FT4 if T4 was administered) are returning to more normal levels, while TSH plummets, often to undetectable levels. At time point H, symptoms of low thyroid are resolved, the patient has no symptoms of hyperthyroidism, and if rT3 had risen and was treated appropriately, rT3 decreased.
as §1, with “mg/dl. […]” for “mg/dl.”

[3] = Existing thyroid therapy in subjects undergoing a weight loss regimen (general finding); assay type: in vivo; settings: T4 alone or T3:T4 at ratios of less than 1:2
Description: Such T4 based therapy often serves to increase levels of rT3 and decreases levels of circulating T3, thereby undermining attempts to counter hypothyroidism and effect continued weight loss.

[4] = Low thyroid symptoms / clinical status of weight loss program patients on thyroid hormone treatment; assay type: in vivo, human
[5] = system: thyroid hormone receptors; settings: cited from earlier work

N[C@@H](Cc1cc(I)c(Oc2cc(I)c(O)c(I)c2)c(I)c1)C(=O)O [T4, (2S)-2-amino-3-[4-(4-hydroxy-3,5-diiododophenoxy)-3,5-diiodophenyl]propanoic acid]
low thyroid symptoms [1]: began to feel tired, cold, and depressed and developed constipation and hair loss
TSH ([2]; Patient Example 2, 75 mcg daily): 0.91 uIU/mL
FT4 ([2]; Patient Example 2, 75 mcg daily, nl 0.93-1.70): 1.07 ng/dL
FT3 ([2]; Patient Example 2, 75 mcg daily, nl 2.2-4.0): 2.3 pg/mL
correction of thyroid abnormalities and/or hypothyroidism so as to permit continuing weight loss [3]: fails to correct thyroid abnormalities and/or hypothyroidism

N[C@@H](Cc1cc(I)c(Oc2ccc(O)cc2)c(I)c1)C(=O)O [T2, 3,5-diiodo-1-thyronine]
FT4 ([2]; Patient Example 3, T2 2 mcg SR q AM added, T3 25 mcg b.i.d., normal range 0.93-1.7): 0.23 ng/dL
FT3 ([2]; Patient Example 3, T2 2 mcg SR q AM added, T3 25 mcg b.i.d., normal range 2.2-4.0): 3.2 pg/mL
rT3 ([2]; Patient Example 3, T2 2 mcg SR q AM added, T3 25 mcg b.i.d., normal range 90-350): 69 pg/mL
FT3 ([2]; Patient Example 4, T2 2 mcg twice daily added, T3 50 mcg twice daily, normal range 2.2-4.0): 2.7 pg/mL
reported symptoms ([4]; Patient Example 3, T2 2 mcg SR q AM added, T3 25 mcg b.i.d., 10 days after start of T2): surfaces of their body were now warm and not numb, and that their skin and hair had improved
energy levels ([4]; Patient Example 3, T2 2 mcg SR q AM added, T3 decreased to 25 mcg b.i.d., two days later): energy levels were normalized
low thyroid symptoms ([4]; Patient Example 3, over six weeks after starting the T2 regimen): not suffering from any symptoms of low thyroid
reported symptoms ([4]; Patient Example 4, T2 2 mcg q AM and 8-10 hours later added, T3 reduced to 50 mcg twice daily, nearly two months): no complaints of fatigue and reported that only a slight coldness persisted

N[C@@H](Cc1ccc(Oc2cc(I)c(O)c(I)c2)c(I)c1)C(=O)O [rT3, reverse triiodothyronine]
action on thyroid hormone receptors [5]: does not stimulate thyroid hormone receptors but instead binds to these receptors
